The results in this text go back to PubChem BioAssay (NCI).

Holding throughout (experiment): inhibition of tumour cell growth, NCI panel, 48 h
The subject of test [1] is COLO 205 colon.
Test [2] deals with EKVX NSCLC.
The subject of test [3] is K-562 leukemia.
The subject of test [4] is LOX IMVI melanoma.
For test [5], the system named is M14 melanoma.
Test [6] relates to OVCAR-8 ovarian.
Test [7] concerns SNB-75 CNS.
Test [8] concerns NCI-H522 lung.

Structures are written as SMILES.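 A five-concentration, 48-hour dose response in 96-well plates underlies each endpoint, interpolated linearly between surrounding concentrations. Here, GI50 denotes the concentration required for 50% inhibition of growth. At the TGI there is no net growth.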 Bounds are passed on as bounds.

As for `COC(=O)C1=Cc2cc(OC)c(OC)cc2[C@H](c2ccc(OC)c(OC)c2)C1C(=O)OC` (some centres not stated), the TGI in test [1], in test [2], in test [3], in test [4], in test [5] and in test [6] was more than 100 µM in each case. Further, in test [7], the TGI was more than 100 µM.

As for `O=C(CC1(O)C(=O)Nc2ccccc21)c1ccc(F)cc1` (configuration not stated), the TGI in test [1], in test [2], in test [3], in test [4], in test [5] and in test [8] was more than 100 µM in each case. In addition, the TGI in test [6] and in test [7] was more than 100 µM in each case.

Consider `Cn1c(=O)c2ccc(-c3ccc(Br)cc3)nc2n(C)c1=O`, for which the TGI in test [1], in test [2], in test [3], in test [4], in test [5] and in test [8] was more than 100 µM throughout. The TGI is more than 100 µM in test [6] and 73.5 µM in test [7].

For the compound `Cc1cc(=O)n2c3c(c4c(cc13)c(CO)cc(=O)n4C)OC2`, the TGI in test [1] was more than 100 µM; in test [2] it was more than 100 µM; in test [3], 97.7 µM; in test [4], 21.1 µM; in test [5], more than 100 µM; in test [8], 17.7 µM. In addition, the values for the TGI in test [6] and in test [7] were 39.1 µM and 70.5 µM, respectively.

For the compound `O=C(N/C(=C\c1ccc(/C=C(\NC(=O)c2ccccc2)c2nc3cc(Cl)ccc3[nH]2)cc1)c1nc2cc(Cl)ccc2[nH]1)c1ccccc1`, the TGI in test [1] was 51.3 µM; in test [2] it was 91.9 µM; in test [3], 71 µM; in test [4], more than 100 µM; in test [5], more than 100 µM; in test [8] it was 53.8 µM. The TGI in test [6] and in test [7] was more than 100 µM each time.

For the compound `CC1(c2cccc(N)c2)C2C(=O)NC(=O)C1C(=O)NC2=O` (configuration not stated), the TGI in test [1] is 50.2 µM; in test [2] it was more than 100 µM; in test [3], 67.3 µM; in test [4], 81.1 µM; in test [5] it was more than 100 µM; in test [8], 46.3 µM. The TGI in test [6] was more than 100 µM; in test [7], 73.2 µM.

Take `C/C(=N\NS(=O)(=O)c1ccc(C)cc1)c1cc2ccccc2n1C`: the TGI in test [1], in test [2], in test [3], in test [4], in test [5] and in test [8] was more than 100 µM in each case. Further, the TGI in test [6] and in test [7] was more than 100 µM each time.

For `CC(=O)[CH-]C(=O)c1ccccc1.CC(=O)[CH-]C(=O)c1ccccc1.CC1(C)OCC(C2OC3OC(C)(C)OC3C2[O-])O1.CC1(C)OCC(C2OC3OC(C)(C)OC3C2[O-])O1.[Ti+4]` (configuration not stated), the GI50 in test [2] was 14.1 µM; in test [3], 14.2 µM; in test [4] it was 13.7 µM; in test [5], 16.1 µM; in test [6], 13.9 µM; in test [7], 11 µM. The TGI in test [2] is 30.1 µM; in test [3], 71.4 µM; in test [4], 34.2 µM; in test [5], 37.6 µM; in test [6], 34.3 µM; in test [7], 28.5 µM.

As to `N.N.O=P([O-])([O-])CN(CCN(CP(=O)([O-])[O-])CP(=O)([O-])[O-])CP(=O)([O-])[O-].[Pt+2]`, the GI50 in test [1], in test [2], in test [3], in test [4], in test [5] and in test [6] was more than 100 µM in each case. The TGI in test [1], in test [2], in test [3], in test [4], in test [5] and in test [6] was more than 100 µM throughout.

With `CCOC(=O)C1=C(C)N(Cc2ccccc2)C(=O)C1CC#N` (configuration not stated), the TGI in test [1], in test [2], in test [3], in test [5], in test [6] and in test [7] was more than 100 µM throughout.

Take `CSc1nc2c(nc(N)n2C2OC(COC(C)=O)C(OC(C)=O)C(OC(C)=O)C2OC(C)=O)c(=O)n1C` (configuration not stated): the TGI in test [1], in test [2], in test [3], in test [4], in test [5] and in test [6] was more than 100 µM each time. Besides, in test [7], the TGI was more than 100 µM.

Consider `CC(=O)[CH-]C(=O)c1ccccc1.CC(=O)[CH-]C(=O)c1ccccc1.CC[C@H](/C=C/C(C)[C@H]1CCC2[C@@H]3CC=C4C[C@@H]([O-])CC[C@]4(C)C3CC[C@@]21C)C(C)C.CC[O-].[Ti+4]` (some centres not stated), for which the GI50 in test [1] was more than 100 µM; in test [2], more than 100 µM; in test [3] it was more than 100 µM; in test [4], more than 100 µM; in test [5] it was more than 100 µM; in test [8], 44.8 µM. For the same compound, the figures for the GI50 in test [6] and in test [7] were more than 100 µM and 22.4 µM, respectively. Further, the TGI in test [1], in test [2], in test [3], in test [4], in test [5] and in test [8] was more than 100 µM each time. Besides, the TGI in test [6] and in test [7] was more than 100 µM each time.

For `N#Cc1cc([N+](=O)[O-])ccc1NC(=O)C(F)(F)F`, the TGI was 44.6 µM in test [1]; more than 100 µM in test [2]; more than 100 µM in test [3]; more than 49.7 µM in test [4]; more than 100 µM in test [5]; more than 100 µM in test [8]. Besides, the TGI in test [6] was more than 100 µM; in test [7], more than 95.9 µM.

As to `Cc1ccc(NC(=O)CC/C(CC(=O)C(C)(C)C)=N/NC(=O)C[N+](C)(C)C)cc1C`, the TGI in test [1], in test [2], in test [3], in test [4], in test [5] and in test [6] was more than 100 µM in each case.
